We go through one molecule from patent US10865236B2, “Bispecific antigen-binding molecules that bind a staphylococcus target antigen and a complement component and uses thereof” (priority 2017, dated 2020).

In the test the test system is S. aureus MW2. In words: Mouse MRSA bacteremia model: bispecific antibody alone or in combination with linezolid, kidney, lung and heart burden Day 4. The format is in vivo, Humanized C1q (C1q^Hu/Hu) mice. Here is the method:
The bacteremia model described above in Example 12 was used to evaluate the activity of an anti-IsdB× anti-C1q bispecific antibody against S. aureus MRSA strains in reducing bacterial burden when used in combination with a standard-of-care antibiotic.
Humanized C1q (C1q^Hu/Hu) mice were infected intraperitoneally with 1.3×10^8 colony forming units (CFUs) per mouse of S. aureus MW2 in a volume of 200 ul. S. aureus MW2 was grown to log phase, OD600≤1, in TSB at 37° C. and washed 3 times in PBS and adjusted to the desired density for infection. Starting at eighteen (18) hours following infection, 2 groups of mice (n=5) were treated with 80 mg/kg of linezolid by oral gavage (200 ul volume), twice daily on Days 1, 2 and 3. […] Mice were weighed daily until Day 4 post infection and change in weight was recorded. Mice were euthanized on Day 4 and kidneys, lungs and hearts were collected to determine organ burden. Briefly, the organs were homogenized in 5 mL PBS using gentleMACS Octo Dissociator (Miltenyi Biotec) using programme-E. The tissue homogenates were then diluted in PBS and multiple 10-fold serial dilutions were plated on LB agar plates and incubated at 37° C. overnight. The next day, individual colonies were counted to determine bacterial burden and results were reported as CFUs/gram tissue.

Consider `CC(=O)NC[C@H]1CN(c2ccc(N3CCOCC3)c(F)c2)C(=O)O1` [linezolid, reference compound], for which, for the setting “MW2”, the “log reduction in overall CFUs, lung” value amounted to 2 log. Under “MW2, compared to infection control (8.5 logs)”, the “log reduction in overall CFUs, kidneys” value is recorded as “less than 2 log”. For the same molecule, the “log CFU reduction, heart” value (MW2, limit of detection 10^3 CFU) is recorded as 3 log. Where the note is “single agent (H1H20631D 100 ug/mouse, Antibiotic None; or Linezolid, no antibody), heart”, the CFUs/g heart was 2.08E+05 CFUs/g. The CFUs/g kidney (single agent (H1H20631D 100 ug/mouse, Antibiotic None; or Linezolid, no antibody), kidney) is reported as 6.99E+06 CFUs/g. In addition, the CFUs/g lung (single agent (H1H20631D 100 ug/mouse, Antibiotic None; or Linezolid, no antibody), lung) is 6.98E+05 CFUs/g.
